Test results from patent US20210181179A1, “DIAGNOSIS AND TREATMENT OF IMMUNOTHERAPY-INDUCED NEUROTOXICITY” (MEMORIAL SLOAN KETTERING CANCER CENTER, priority 2018, published 2021).

What was measured:
[1] = test system: HMC3 microglial cell line; assay: RT-PCR of cytokines and chemokines in microglial cells; format: cell-based, human; conditions: for key chemokines, including CCL2, CXCL9 and CXCL10, and cytokine IL1beta: monocyte and microglial cell activation
From the text: FIGS. 19A-E. Kynurenine metabolites contribute to CRS. (FIG. 19A-B) RT-PCR analysis of cytokines and chemokines that lead to myeloid cell activation in response to kynurenine metabolites exposure. ([…]) Western blot analysis of HMC3 microglial cell line in response to kynurenine metabolites exposure. (FIGS. 19D-E.) RT-PCR analysis of cytokines and chemokines in response to exposure to cytokines shown (TNF, Il1β, IFNγ).
CCL2 (MCP1) and CXCL10 (IP10) serve as chemo-attractants for myeloid and T cells, while CXCL9 (MIG) is a potent T cell chemoattractant. […] We confirmed Il1β protein production in response to Il1β stimulation (FIG. 19C). Il1β production was dependent on Ahr activity, as addition of an Ahr antagonist blocked up-regulation of Il1β. Il1β is a strong inducer of microglial activation.

NMDA receptors = assay: Western blot of HCN2 neurons for NMDA receptor activation (p-CREB, p-Erk); format: cell-based; conditions: 30 min, cytokines applied via culture filtrates of stimulated HMC3 microglia
From the text: FIGS. 18A-B. Western blot analysis of HCN2 neurons showing NMDA receptor activation through increase in p-CREB levels in response to exposure to conditioned media. The conditioned media was produced by microglia and monocytes treated with cytokines to stimulate quinolinic acid (QUIN) production (FIG. 18A). This effect can be blocked with the use of IDO and AhR inhibitors (FIG. 18B) that block either kynurenine metabolite production or signaling.
QUIN binds directly to NMDA receptors, and leads to Ca^2+ influx, followed by activation cascade through Erk kinase phosphorylation and eventual phosphorylation of CREB transcription factor. In order to test if microglial cell derived QUIN is sufficient to activate NMDA receptors, we performed a co-culture experiment. Culture filtrates from an HMC3 microglial cell line were stimulated with IFNγ, Il1β, or combination of both, and were layered over HCN2 cortical neurons for 30 min, after which the cells were lysed and tested for downstream effectors of NMDA receptor activation.

[2] = test system: adult patients with CD19+B-ALL; assay: Management of neurotoxicity and CRS (tocilizumab, corticosteroid, seizure prophylaxis) in the 19-28z CAR T cell trial; format: in vivo, human
From the text: The anti-IL-6 receptor monoclonal antibody, tocilizumab, with or without corticosteroid is often used to mitigate CRS and neurotoxicity. Six (18%) of 33 patients with neurotoxicity received tocilizumab alone; 14 (42%) received tocilizumab plus corticosteroid; 4 (12%) received corticosteroid alone; and 9 (27%) received neither tocilizumab nor corticosteroid (FIG. 6/Supplementary Fig. S1). In the 16 patients with severe neurotoxicity who received tocilizumab, 9 (56.3%) had peak neurotoxicity after the first dose of tocilizumab whereas 7 (43.7%) had peak neurotoxicity prior to or on the day of tocilizumab administration. […] The time from first tocilizumab and/or steroid dose to resolution of neurotoxicity (median, 9 days; range 4-21 days) was longer than the time to resolution of CRS (median, 1 day; range 0-3 days; P<0.001), confirming previous findings that neurotoxicity is less responsive than CRS to these treatment interventions.
Toxicity assessment: CRS was graded according to the MSKCC CRS grading system. Severe CRS was defined as ≥grade 3. Neurotoxicity was prospectively graded according to National Cancer Institute common terminology criteria for adverse events (CTCAE) v4.03 by the principal investigator (P). An independent retrospective review of the electronic medical record was performed by a neurologist (BS) who assigned daily neurotoxicity grades to the AE terms according to CTCAE v4.03. Discrepancies were adjudicated by consensus review. All patients developing neurologic symptoms were evaluated by the neurology consult service and followed with daily neurologic assessments until neurologic symptom resolution. Severe neurotoxicity was defined as ≥grade 3 toxicity with the exception that any seizure (including grade 1 or 2 by CTCAE criteria) was included as severe neurotoxicity.

[3] = early intervention strategy; cited from earlier work

In the case of O=C(O)c1cc(=O)c2ccccc2[nH]1 [KA, kynurenic acid], the “key chemokines, including CCL2, CXCL9 and CXCL10, and cytokine IL1beta” value [1] is reported as “up-regulation”.

In the case of Il1beta: cytokine, the “p-CREB and p-Erk in cortical neurons” value (NMDA receptors) is reported as “p-CREB and p-Erk upregulation” and the “monocyte attracting factors in response to Il1b” value ([1]; RT-PCR) is reported as “strong upregulation of monocyte attracting factors, CCL2, CXCL9 and CXCL19”.

With Nc1ccccc1C(=O)CC(N)C(=O)O (stereo not shown) [kynurenine] the “production of chemokines and cytokines on co-incubation” value ([1]; microglial cells, RT-PCR) was “induced production of several chemokines (CCL2, CXCL9, CXCL10) and cytokines, most notably Il1β” and the “key chemokines, including CCL2, CXCL9 and CXCL10, and cytokine IL1beta” value [1] was “up-regulation”.

With tocilizumab the “patients with peak neurotoxicity prior to or on the day of tocilizumab administration” value ([2]; 7 of 16 patients with severe neurotoxicity who received tocilizumab) was 43.7%, the “patients with peak neurotoxicity after the first dose of tocilizumab” value ([2]; 9 of 16 patients with severe neurotoxicity who received tocilizumab) was 56.3% and the “response of neurotoxicity to tocilizumab administration” value ([2]; in most patients) was “did not respond”. For the same compound, the “time from first tocilizumab and/or steroid dose to resolution of CRS (median)” value ([2]; range 0-3 days) was 1 days, the “time from first tocilizumab and/or steroid dose to resolution of neurotoxicity (median)” value ([2]; range 4-21 days) was 9 days and the “serum IL6 after tocilizumab administration” value ([2]; serum) was “transient increase of serum IL6”. The “effect on CRS” value ([2]; tocilizumab therapy alone) was “readily improved CRS”, the “effect on neurologic symptoms” value ([2]; tocilizumab therapy alone) was “did not ameliorate neurologic symptoms” and the “frequency of severe neurotoxicity” value [3] was “did not affect the frequency of severe neurotoxicity”. For the same compound, the “rate of severe CRS” value [3] was “decreased the rate of severe CRS”.

For O=C(O)c1cccnc1C(=O)O [quinolinic acid], the “p-CREB and p-Erk in cortical neurons” value (NMDA receptors) was “p-CREB and p-Erk upregulation”.
